# Measurements reported in US20100298141A1, “SUBSTITUTED PYRIDINE N-OXIDE HERBICIDES” (E. I. DU PONT DE NEMOURS AND COMPANY, priority 2007, published 2010).
# Assays:
# [1] = tested on: morningglory; experiment: Test A pre-/postemergence greenhouse test; type: in vivo, Ipomoea spp.; details: for Plant response rating, Morningglory: 0 to 100 scale where 0 is no effect and 100 is complete control; for Morningglory plant response rating: 0 to 100 scale
# Method in brief: (§1)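 Untreated controls served as the reference for visual injury ratings taken about ten days after spraying. The non-phytotoxic solvent/surfactant formulation was applied preemergence to seeded loam and sand and postemergence to plants two to ten cm high.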
# [2] = tested on: kochia; experiment: Test C pre-/postemergence test; type: in vivo, Kochia scoparia; details: Postemergence; for Plant response rating, Kochia: scale 0 to 100, 0 no effect, 100 complete control
# Description: (§2) Seeds of plant species selected from blackgrass (Alopecurus myosuroides), downy brome (Bromus tectorum), green foxtail (Setaria viridis), Italian ryegrass (Lolium multiflorum), wheat (Triticum aestivum), wild oat (Avena fatua), catchweed bedstraw (Galium aparine), Russian thistle (Salsola kali), […] (Cynodon dactylon), Surinam grass (Brachiaria decumbens), cocklebur (Xanthium strumarium), corn (Zea mays), crabgrass (Digitaria sanguinalis), woolly cupgrass (Eriochloa villosa), giant foxtail (Setaria faberii), Goosegrass (Eleusin indica), johnsongrass (Sorghum halepense), kochia (Kochia scoparia), lambsquarters (Chenopodium album), morningglory (Ipomoea coccinea), eastern black nightshade (Solanum ptycanthum), yellow nutsedge (Cyperus esculentus), pigweed (Amaranthus retroflexus), common ragweed (Ambrosia elation), soybean (Glycine max), common (oilseed) sunflower (Helianthus annuus), and velvetleaf (Abutilon theophrasti) were planted and treated preemergence with test chemicals formulated in a non-phytotoxic solvent mixture which included a surfactant. At the same time, plants selected from these crop and weed species and also winter barley (Hordeum vulgare), canarygrass (Phalaris minor), and chickweed (Stellaria media) were treated with postemergence applications of some of the test chemicals formulated in the same manner. Plants ranged in height from 2 to 18 cm (1- to 4-leaf stage) for postemergence treatments. […] At time of treatment, test pots were flooded to 3 cm above the soil surface, treated by application of test compounds directly to the paddy water, and then maintained at that water depth for the duration of the test. […] A dash (-) response means no test result.
# [3] = tested on: Surinam grass; experiment: Test C pre-/postemergence test; type: in vivo, Brachiaria decumbens; details: Postemergence; for Plant response rating, Surinam Grass: scale 0 to 100, 0 no effect, 100 complete control
# Description: as §2
# [4] = tested on: soybean; experiment: Test C pre-/postemergence test; type: in vivo, Glycine max; details: Postemergence; for Plant response rating, Soybean: scale 0 to 100, 0 no effect, 100 complete control
# Description: as §2
# [5] = tested on: giant foxtail; experiment: Test A pre-/postemergence greenhouse test; type: in vivo, Setaria faberi; details: for Plant response rating, Foxtail, Giant: 0 to 100 scale where 0 is no effect and 100 is complete control; for Foxtail, Giant plant response rating: 0 to 100 scale
# Method in brief: as §1
# [6] = tested on: pigweed; experiment: Test C pre-/postemergence test; type: in vivo, Amaranthus retroflexus; details: Postemergence; for Plant response rating, Pigweed: scale 0 to 100, 0 no effect, 100 complete control
# Description: as §2
# [7] = tested on: lambsquarters; experiment: Test C pre-/postemergence test; type: in vivo, Chenopodium album; details: Postemergence; for Plant response rating, Lambsquarters: scale 0 to 100, 0 no effect, 100 complete control
# Description: as §2
# [8] = tested on: barnyardgrass; experiment: Test A pre-/postemergence greenhouse test; type: in vivo, Echinochloa crus-galli; details: for Plant response rating, Barnyardgrass: 0 to 100 scale where 0 is no effect and 100 is complete control; for Barnyardgrass plant response rating: 0 to 100 scale
# Method in brief: as §1
# [9] = tested on: Goosegrass; experiment: Test C pre-/postemergence test; type: in vivo, Eleusin indica; details: Postemergence; for Plant response rating, Goosegrass: scale 0 to 100, 0 no effect, 100 complete control
# Description: as §2
# [10] = tested on: umbrella sedge; experiment: Test C flooded paddy test; type: in vivo, Cyperus difformis; details: Flood
# Method in brief: (§3)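 In-water treatment: compound dosed into 3 cm flood over soil, water level unchanged throughout. Controls run alongside; visual assessment at day 13–15.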
# [11] = tested on: cocklebur; experiment: Test C pre-/postemergence test; type: in vivo, Xanthium strumarium; details: Postemergence; for Plant response rating, Cocklebur: scale 0 to 100, 0 no effect, 100 complete control
# Description: as §2
# [12] = tested on: barnyardgrass; experiment: Test C flooded paddy test; type: in vivo, Echinochloa crus-galli; details: Flood
# Method in brief: as §3
# [13] = tested on: crabgrass; experiment: Test A pre-/postemergence greenhouse test; type: in vivo, Digitaria sanguinalis; details: for Plant response rating, Crabgrass, Large: 0 to 100 scale where 0 is no effect and 100 is complete control; for Crabgrass, Large plant response rating: 0 to 100 scale
# Method in brief: as §1
# [14] = tested on: Italian ryegrass; experiment: Test C pre-/postemergence test; type: in vivo, Lolium multiflorum; details: Postemergence; for Plant response rating, Ryegrass, Italian: scale 0 to 100, 0 no effect, 100 complete control
# Description: as §2
# [15] = tested on: bermudagrass; experiment: Test C pre-/postemergence test; type: in vivo, Cynodon dactylon; details: Postemergence; for Plant response rating, Bermudagrass: scale 0 to 100, 0 no effect, 100 complete control
# Description: as §2
# [16] = tested on: crabgrass; experiment: Test C pre-/postemergence test; type: in vivo, Digitaria sanguinalis; details: Postemergence; for Plant response rating, Crabgrass, Large: scale 0 to 100, 0 no effect, 100 complete control
# Description: as §2
# [17] = Postemergence, 500 g ai/ha, 0 is no effect, 100 is complete control
# [18] = Preemergence, 125 g ai/ha, 0 no effect, 100 complete control
# [19] = 62 g ai/ha, scale 0 to 100 (0 no effect, 100 complete control)
# [20] = 250 g ai/ha, scale 0 to 100, 0 no effect, 100 complete control, 13 to 15 days
compound,measurement,setting,value
Cn1nc(C(F)(F)F)c(C[S+]([O-])c2cccc[n+]2[O-])c1OCC(F)(F)C(F)(F)F (centres unmarked) [Compound 78],"Plant response rating, Morningglory","[1]; Postemergence, 125 g ai/ha",30
same,Morningglory plant response rating,[1]; [17],60
same,Morningglory plant response rating,[1]; [18],20
same,"Plant response rating, Morningglory","[1]; Preemergence, 500 g ai/ha",80
same,"Plant response rating (0 to 100), Kochia",[2]; 31 g ai/ha,0
same,"Plant response rating, Kochia",[2]; 62 g ai/ha,0
same,"Plant response rating, Kochia",[2]; 125 g ai/ha,0
same,"Plant response rating, Kochia",[2]; 250 g ai/ha,0
same,"Plant response rating (0 to 100), Surinam Grass",[3]; 31 g ai/ha,0
same,"Plant response rating (0 to 100), Surinam Grass",[3]; 62 g ai/ha,0
same,"Plant response rating, Surinam Grass",[3]; 125 g ai/ha,0
same,"Plant response rating, Surinam Grass",[3]; 250 g ai/ha,70
same,"Plant response rating (0 to 100), Soybean",[4]; 62 g ai/ha,20
same,"Plant response rating, Soybean",[4]; 125 g ai/ha,60
same,"Plant response rating, Soybean",[4]; 250 g ai/ha,65
same,"Plant response rating, Foxtail, Giant","[5]; Postemergence, 125 g ai/ha",80
same,"Foxtail, Giant plant response rating",[5]; [17],80
same,"Foxtail, Giant plant response rating",[5]; [18],90
same,"Plant response rating, Foxtail, Giant","[5]; Preemergence, 500 g ai/ha",100
same,"Plant response rating (0 to 100), Pigweed",[6]; 31 g ai/ha,0
same,"Plant response rating (0 to 100), Pigweed",[6]; 62 g ai/ha,0
same,"Plant response rating, Pigweed",[6]; 125 g ai/ha,30
same,"Plant response rating, Pigweed",[6]; 250 g ai/ha,35
same,"Plant response rating (0 to 100), Lambsquarters",[7]; 31 g ai/ha,0
same,"Plant response rating, Lambsquarters",[7]; 62 g ai/ha,0
same,"Plant response rating, Lambsquarters",[7]; 125 g ai/ha,0
same,"Plant response rating, Lambsquarters",[7]; 250 g ai/ha,0
same,"Plant response rating, Barnyardgrass","[8]; Postemergence, 125 g ai/ha",80
same,Barnyardgrass plant response rating,[8]; [17],80
same,Barnyardgrass plant response rating,[8]; [18],70
same,"Plant response rating, Barnyardgrass","[8]; Preemergence, 500 g ai/ha",100
same,"Plant response rating (0 to 100), Goosegrass",[9]; 31 g ai/ha,0
same,"Plant response rating, Goosegrass",[9]; 62 g ai/ha,0
same,"Plant response rating, Goosegrass",[9]; 125 g ai/ha,10
same,"Plant response rating, Goosegrass",[9]; 250 g ai/ha,60
same,"Plant response rating, Sedge, Umbrella",[10]; [19],75
same,"Plant response rating, Sedge, Umbrella",[10]; [20],100
same,"Plant response rating (0 to 100), Cocklebur",[11]; 31 g ai/ha,0
same,"Plant response rating, Cocklebur",[11]; 62 g ai/ha,0
same,"Plant response rating, Cocklebur",[11]; 125 g ai/ha,0
same,"Plant response rating, Cocklebur",[11]; 250 g ai/ha,0
same,"Plant response rating, Barnyardgrass",[12]; [19],0
same,"Plant response rating, Barnyardgrass",[12]; [20],50
same,"Plant response rating, Crabgrass, Large","[13]; Postemergence, 125 g ai/ha",70
same,"Crabgrass, Large plant response rating",[13]; [17],80
same,"Crabgrass, Large plant response rating",[13]; [18],30
same,"Plant response rating, Crabgrass, Large","[13]; Preemergence, 500 g ai/ha",100
same,"Plant response rating (0 to 100), Ryegrass, Italian",[14]; 31 g ai/ha,0
same,"Plant response rating (0 to 100), Ryegrass, Italian",[14]; 62 g ai/ha,0
same,"Plant response rating, Ryegrass, Italian",[14]; 125 g ai/ha,30
same,"Plant response rating, Ryegrass, Italian",[14]; 250 g ai/ha,30
same,"Plant response rating (0 to 100), Bermudagrass",[15]; 31 g ai/ha,0
same,"Plant response rating, Bermudagrass",[15]; 62 g ai/ha,0
same,"Plant response rating, Bermudagrass",[15]; 125 g ai/ha,0
same,"Plant response rating, Bermudagrass",[15]; 250 g ai/ha,0
same,"Plant response rating (0 to 100), Crabgrass, Large",[16]; 31 g ai/ha,0
same,"Plant response rating, Crabgrass, Large",[16]; 62 g ai/ha,0
same,"Plant response rating, Crabgrass, Large",[16]; 125 g ai/ha,0
same,"Plant response rating, Crabgrass, Large",[16]; 250 g ai/ha,20
